# Test results published in ChEMBL document CHEMBL4118131, “Synthesis of 1,2,4-triazole-linked urea/thiourea conjugates as cytotoxic and apoptosis inducing agents” (Bioorg Med Chem Lett, 2018).
# Key:
# Format in all cases: functional, cell-based
# B16-F10 = assay: Cytotoxicity in mouse B16/F10 cells assessed as reduction in cell viability incubated for 48 hrs by MTT assay; conditions: B16-F10, 48 h
# MDA-MB-231 = assay: Cytotoxicity in human MDA-MB-231 cells assessed as reduction in cell viability incubated for 48 hrs by MTT assay; conditions: MDA-MB-231, 48 h
# MCF7 = assay: Cytotoxicity in human MCF7 cells assessed as reduction in cell viability incubated for 48 hrs by MTT assay; conditions: MCF7, 48 h
# A549 = assay: Cytotoxicity in human A549 cells assessed as reduction in cell viability incubated for 48 hrs by MTT assay; conditions: A549, 48 h
# DU-145 = assay: Cytotoxicity in human DU145 cells assessed as reduction in cell viability incubated for 48 hrs by MTT assay; conditions: DU-145, 48 h
SMILES,IC50 (B16-F10),IC50 (MDA-MB-231),IC50 (MCF7),IC50 (A549),IC50 (DU-145)
COc1cc(CN(C(=S)Nc2cc(C(F)(F)F)cc(C(F)(F)F)c2)n2cnnc2)cc(OC)c1OC,5.62 µM,24.9 µM,23.8 µM,21 µM,23.1 µM
COc1ccc(CN(C(=O)Nc2ccc(Cl)c(C(F)(F)F)c2)n2cnnc2)cc1OC,> 50 µM,> 50 µM,> 50 µM,29.3 µM,> 50 µM
Cc1ccsc1CN(C(=O)Nc1cccc(Cl)c1)n1cnnc1,> 50 µM,40.3 µM,31.2 µM,21.4 µM,20.4 µM
COc1ccc(CN(C(=S)Nc2ccc(F)c(Cl)c2)n2cnnc2)cc1OC,20.7 µM,27.9 µM,30.1 µM,21 µM,23.3 µM
Cc1ccsc1CN(C(=O)Nc1cccc(C#N)c1)n1cnnc1,28.9 µM,> 50 µM,> 50 µM,26 µM,31 µM
COc1cc(CN(C(=S)Nc2ccc(C)cc2)n2cnnc2)cc(OC)c1OC,46.8 µM,> 50 µM,> 50 µM,22.8 µM,20.8 µM
COc1ccc(CN(C(=O)Nc2ccc(Cl)cc2)n2cnnc2)cc1OC,42.2 µM,> 50 µM,> 50 µM,44.2 µM,20.4 µM
N#Cc1ccc(CN(C(=O)Nc2ccccc2)n2cnnc2)cc1,34.7 µM,> 50 µM,> 50 µM,> 50 µM,> 50 µM
Cc1ccsc1CN(C(=O)Nc1ccc(Cl)c(C(F)(F)F)c1)n1cnnc1,22.1 µM,29.6 µM,30.1 µM,26.2 µM,24.1 µM
CCc1ccc(NC(=S)N(Cc2cc(OC)c(OC)c(OC)c2)n2cnnc2)cc1,24.7 µM,24.8 µM,24.8 µM,17.2 µM,21.4 µM
CC1CCC(NC(=O)N(Cc2ccccn2)n2cnnc2)CC1 (stereo not given),39.7 µM,33.2 µM,34 µM,43.7 µM,20.1 µM
O=C(Nc1ccccc1)N(Cc1ccccn1)n1cnnc1,23.7 µM,> 50 µM,> 50 µM,24.9 µM,20.2 µM
CCCCCCCCCNC(=S)N(Cc1cc(OC)ccc1OC)n1cnnc1,29.4 µM,> 50 µM,> 50 µM,> 50 µM,> 50 µM
